Data from patent publication US8257749B2, “Systems providing at least pesticidal activity” (Biolargo Life Technologies, Incorporated, priority 2007, dated 2012).

What was measured:
enterococci [1] = assay: longer term experiment, sand dosed with pure culture of enterococci and imbibed with iodine solution; format: cell-based
Protocol: (§1) In a first experiment, a natural sample from Santa Monica beach was user. This soil sample was taken from an area close to a storm drain. Concentrations started at 1100 MPN enterococci per 100 gram sediment were used. Wash samples having a concentration of greater than 10 parts per million were used on the soil samples. Enterocci concentrations approached zero for all of five consecutive washes. A longer term experiment was then performed with sand dosed with a pure culture of enterococci, the >10 ppm iodine solution imbibed in the soil, and then autoclaving. The bacterial level started at 1050 MPN/100 g, and went to zero immediately upon treatment. This was clearly evidenced in five washes (all zero). Two samples were treated with >10 ppm iodine solutions and left to sit on the roof for several days. The bacterial levels were approximately zero at the end of the experiment. Samples that were imbibed with the >10 ppm solution and the sand raked, had bacterial levels that decreased in concentration during the days, and rebounded at night for two nights, and then ended up at zero, indicating effectiveness of the solution, and a benefit to combination of the solution with heat and/or light. The undisturbed controls in both dark and light ended up with countable bacteria at the end.
In a first experiment showing the efficacy of the iodine treatment on bacteria in soil, a natural sample from Santa Monica beach was user. This soil sample was taken from an area close to a storm drain. Concentrations started at 1100 MPN enterococci per 100 gram sediment were used. Wash samples having a concentration of greater than 10 parts per million were used on the soil samples. Enterocci concentrations approached zero for all of five consecutive washes. A longer term experiment was then performed with sand dosed with a pure culture of enterococci, the >10 ppm iodine solution imbibed in the soil, and then autoclaving. The bacterial level started at 1050 MPN/100 g, and went to zero immediately upon treatment. This was clearly evidenced in five washes (all zero). […]

enterococci [2] = assay: iodine wash of natural Santa Monica beach soil sample; format: cell-based; details: started at 1100 MPN, wash samples greater than 10 parts per million, all of five consecutive washes
Protocol: as §1, with “end. […]” for “end.”

SMILES: II [iodine solution, molecular iodine]
- bacterial levels at end, imbibed and raked sand (enterococci [1]; >10 ppm solution, sand raked, decreased during the days, rebounded at night for two nights): zero
- bacterial level immediately upon treatment (enterococci [1]; sand dosed with pure culture, started at 1050 MPN/100 g, >10 ppm iodine solution imbibed, five washes (all zero)): zero
- bacterial levels at the end of the experiment (enterococci [1]; two samples treated with >10 ppm iodine solutions, left to sit on the roof for several days): approximately zero
- Enterocci concentrations after wash (enterococci [2]): approximately zero
